This data set deals with rodent carcinogenicity bioassays, tumor incidence. Kind of data set: CCRIS carcinogenicity studies. Put shortly:
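Archive of carcinogenicity, mutagenicity, tumor promotion and tumor inhibition results drawn from journals, NCI reports and other sources, expert-reviewed; covers 1985-2011 and is no longer updated.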

Structures are written as SMILES. Active and inactive are the calls of the source. No rule for the calls is given here.

For `C=COC(N)=O`, the carcinogen call by setting is: (Species: MOUSE, Strain/Sex: B6C3F1/MALE, Route: INTRAPERITONEAL, Dose: 0, 2.5 UG/G BW IN 10 µL TRIOCTANOIN ONCE (STUDY DURATION: 9 MO), Tumor Site: Type of Lesion: LIVER: HEPATOMA) “active; positive”; (Species: MOUSE, Strain/Sex: CD-1/FEMALE, Route: DERMAL, Dose: 0, 11.5 UMOL IN WEEKS 1 AND 2 THEN 5.7 UMOL IN WEEKS 3 AND 4 FOLLOWED BY 3.8 UMOL/WK FOR 28 WK (STUDY DURATION: 42 WK), Tumor Site: Type of Lesion: SKIN: PAPILLOMA, CARCINOMA) “active; positive”; (Species: MOUSE, Strain/Sex: STRAIN-A/FEMALE, Route: INTRAPERITONEAL, Dose: 0, 34, 68 NMOL/G BW IN 5 µL TRIOCTANOIN ONCE (STUDY DURATION: 6 MO), Dose: 0, 34, 68 NMOL/G BW IN 5 µL TRIOCTANOIN ONCE (STUDY DURATION: 6 MO), Tumor Site: Type of Lesion: LUNG: ADENOMA) “active; positive”; (Species: RAT, Strain/Sex: SPRAGUE-DAWLEY/FEMALE, Route: INTRAMUSCULAR, Dose: 0, 1.15, 2.3 UMOL IN 0.25 ML TRIOCTANOIN 1/WK FOR 10 WK (STUDY DURATION: 18 MO), Dose: 0, 1.15, 2.3 UMOL IN 0.25 ML TRIOCTANOIN 1/WK FOR 10 WK (STUDY DURATION: 18 MO)) “inactive; negative”.
In the case of `COC(=O)c1ccc(C)cc1C1=NC(C)(C(C)C)C(=O)N1` (centres undefined) (tested in a mixture with another compound), the carcinogen call is “inactive; negative” (Species: Mouse, Strain/Sex: CD-1/Female (65/Group), Route: Oral, Dose: 0, 130, 525, 2100 ppm 94.2% imazamethabenz-methyl in diet for 18 mo, study duration 18 mo, Dose: 0, 130, 525, 2100 ppm 94.2% imazamethabenz-methyl in diet for 18 mo, study duration 18 mo); “inactive; negative” (Species: Mouse, Strain/Sex: CD-1/Male (65/Group), Route: Oral, Dose: 0, 130, 525, 2100 ppm 94.2% imazamethabenz-methyl in diet for 18 mo, study duration 18 mo, Dose: 0, 130, 525, 2100 ppm 94.2% imazamethabenz-methyl in diet for 18 mo, study duration 18 mo); “inactive; negative” (Species: Rat, Strain/Sex: Crl:CD(SD)BR/Female (65/Group), Route: Oral, Dose: 0, 240, 1000, 4000 ppm 94.2% imazamethabenz-methyl in diet for 24 mo, study duration 24 mo, Dose: 0, 240, 1000, 4000 ppm 94.2% imazamethabenz-methyl in diet for 24 mo, study duration 24 mo); “inactive; negative” (Species: Rat, Strain/Sex: Crl:CD(SD)BR/Male (65/Group), Route: Oral, Dose: 0, 240, 1000, 4000 ppm 94.2% imazamethabenz-methyl in diet for 24 mo, study duration 24 mo, Dose: 0, 240, 1000, 4000 ppm 94.2% imazamethabenz-methyl in diet for 24 mo, study duration 24 mo).
Consider `O=CNNC=O`, for which the carcinogen call by setting is: (Species: MOUSE, Strain/Sex: SWISS/FEMALE, Route: ORAL, Dose: 0, 2% SOLUTION IN DRINKING WATER FROM AGE 6 WK FOR LIFE FOR AN AVERAGE DAILY INTAKE OF 0, 144 MG, Dose: 0, 2% SOLUTION IN DRINKING WATER FROM AGE 6 WK FOR LIFE FOR AN AVERAGE DAILY INTAKE OF 0, 144 MG, Tumor Site: Type of Lesion: LUNG: ADENOMA OR ADENOCARCINOMA) “active; positive”; (Species: MOUSE, Strain/Sex: SWISS/MALE, Route: ORAL, Dose: 0, 2% SOLUTION IN DRINKING WATER FROM AGE 6 WK FOR LIFE FOR AN AVERAGE DAILY INTAKE OF 0, 146 MG, Dose: 0, 2% SOLUTION IN DRINKING WATER FROM AGE 6 WK FOR LIFE FOR AN AVERAGE DAILY INTAKE OF 0, 146 MG, Tumor Site: Type of Lesion: LUNG: ADENOMA OR ADENOCARCINOMA) “active; positive”.
As to `[Ni+2].[OH-].[OH-]`, for the setting “Species: RAT, Strain/Sex: WISTAR, Route: INTRAMUSCULAR IMPLANT, Tumor Site: Type of Lesion: IMPLANT SITE”, the carcinogen call was “active; positive”.
Take `CN(C)C=O`: the carcinogen call is, setting by setting: (Species: MOUSE, Strain/Sex: CRL:CD-1(ICR)BR/FEMALE, Route: INHALATION, Dose: 0, 25, 100, 400 PPM 6 HR/D 5 D/WK FOR 18 MO (STUDY DURATION: 18 MO), Dose: 0, 25, 100, 400 PPM 6 HR/D 5 D/WK FOR 18 MO (STUDY DURATION: 18 MO)) “inactive; negative”; (Species: MOUSE, Strain/Sex: CRL:CD-1(ICR)BR/MALE, Route: INHALATION, Dose: 0, 25, 100, 400 PPM 6 HR/D 5 D/WK FOR 18 MO (STUDY DURATION: 18 MO), Dose: 0, 25, 100, 400 PPM 6 HR/D 5 D/WK FOR 18 MO (STUDY DURATION: 18 MO)) “inactive; negative”; (Species: RAT, Strain/Sex: CRL:CD BR/FEMALE, Route: INHALATION, Dose: 0, 25, 100, 400 PPM 6 HR/D 5 D/WK FOR 24 MO (STUDY DURATION: 24 MO), Dose: 0, 25, 100, 400 PPM 6 HR/D 5 D/WK FOR 24 MO (STUDY DURATION: 24 MO)) “inactive; negative”; (Species: RAT, Strain/Sex: CRL:CD BR/MALE, Route: INHALATION, Dose: 0, 25, 100, 400 PPM 6 HR/D 5 D/WK FOR 24 MO (STUDY DURATION: 24 MO), Dose: 0, 25, 100, 400 PPM 6 HR/D 5 D/WK FOR 24 MO (STUDY DURATION: 24 MO)) “inactive; negative”.
For `CNC(=O)N(C)N=O`, the carcinogen call was “active; positive” (Species: RAT, Strain/Sex: F344/FEMALE, Route: GAVAGE, Dose: 0, 20, 40 UMOL/WK IN CORN OIL/ETHYL ACETATE (2: 1) FOR 30 WK FOR TOTAL DOSES OF 0, 0.6, 1.2 MMOL (STUDY DURATION: LIFETI, Dose: 0, 20, 40 UMOL/WK IN CORN OIL/ETHYL ACETATE (2: 1) FOR 30 WK FOR TOTAL DOSES OF 0, 0.6, 1.2 MMOL (STUDY DURATION: LIFETI, Tumor Site: Type of Lesion: NERVOUS SYSTEM: TUMOR); “active; positive” (Species: RAT, Strain/Sex: F344/FEMALE, Route: INTRAVESICULAR, Dose: 0, 2.4 MG 2/WK FOR 30 WK (STUDY DURATION: LIFETIME), Tumor Site: Type of Lesion: BRAIN: TUMOR, KIDNEY: TUMOR); “active; positive” (Species: RAT, Strain/Sex: F344/FEMALE, Route: ORAL, Dose: 0, 20, 40 UMOL/WK IN DRINKING WATER FOR 30 WK FOR TOTAL DOSES OF 0, 0.6, 1.2 MMOL (STUDY DURATION: LIFETIME), Dose: 0, 20, 40 UMOL/WK IN DRINKING WATER FOR 30 WK FOR TOTAL DOSES OF 0, 0.6, 1.2 MMOL (STUDY DURATION: LIFETIME), Tumor Site: Type of Lesion: UTERUS: TUMOR, THYROID: FOLLICULAR CELL TUMOR, NERVOUS SYSTEM: TUMOR, Tumor Site: Type of Lesion: UTERUS: TUMOR, THYROID: FOLLICULAR CELL TUMOR, NERVOUS SYSTEM: TUMOR); “active; positive” (Species: RAT, Strain/Sex: F344/MALE, Route: GAVAGE, Dose: 0, 20, 40 UMOL/WK IN CORN OIL/ETHYL ACETATE (2: 1) FOR 30 WK FOR TOTAL DOSES OF 0, 0.6, 1.2 MMOL (STUDY DURATION: LIFETI, Dose: 0, 20, 40 UMOL/WK IN CORN OIL/ETHYL ACETATE (2: 1) FOR 30 WK FOR TOTAL DOSES OF 0, 0.6, 1.2 MMOL (STUDY DURATION: LIFETI, Tumor Site: Type of Lesion: NERVOUS SYSTEM: TUMOR, TESTIS: MESOTHELIOMA); “active; positive” (Species: RAT, Strain/Sex: F344/MALE, Route: ORAL, Dose: 0, 20, 40 UMOL/WK IN DRINKING WATER FOR 30 WK FOR TOTAL DOSES OF 0, 0.6, 1.2 MMOL (STUDY DURATION: LIFETIME), Dose: 0, 20, 40 UMOL/WK IN DRINKING WATER FOR 30 WK FOR TOTAL DOSES OF 0, 0.6, 1.2 MMOL (STUDY DURATION: LIFETIME), Tumor Site: Type of Lesion: TESTIS: MESOTHELIOMA, NERVOUS SYSTEM: TUMOR).
Consider `C#C[C@]1(OC(C)=O)CC[C@H]2[C@@H]3CCC4=C[C@@H](OC(C)=O)CC[C@@H]4[C@H]3CC[C@@]21C`, for which the carcinogen call was “active; positive” (Species: MOUSE, Route: ORAL, Tumor Site: Type of Lesion: MAMMARY GLAND) and “active; positive” (Species: RAT, Route: ORAL, Tumor Site: Type of Lesion: MAMMARY GLAND).
On to `[Si]`, for which, under “Species: RAT, Strain/Sex: F344/FEMALE, Route: SUBCUTANEOUS IMPLANT, Dose: 10 X 20 X 0.3 MM SHEETS IMPLANTED INTO 2 SITES IN LATERAL ABDOMINAL REGION AND 1 SITE ON THE BACK (STUDY DURATION: 741 D, Tumor Site: Type of Lesion: IMPLANT SITE: MALIGNANT HISTIOCYTOMA”, the carcinogen call is “active; positive”.
Regarding `CCC1c2ccc(O)cc2C(C)C1c1ccc(O)cc1` (centres undefined), for the setting “Species: HAMSTER, Strain/Sex: SYRIAN/MALE, Route: SUBCUTANEOUS IMPLANT, Dose: 0, 20 MG IN PELLETS IMPLANTED EVERY 2.5 MO FOR 9 MO (STUDY DURATION: 9 MO)”, the carcinogen call is “inactive; negative”.

These data come from PubChem BioAssay AID1259411 (Chemical Carcinogenesis Research Information System (CCRIS), 2018).
